In ChEMBL document CHEMBL4765419, “Design, synthesis and bioactivity evaluation of novel arylalkene-amide derivatives as dual-target antifungal inhibitors” (Eur J Med Chem, 2020):
Each block holds one compound with its values, some of them ahead of it. Activity calls are given as the source filed them. No cut-off for these calls is given here.

Key:
[1] = test system: Candida albicans; test: Antifungal activity against Candida albicans assessed as inhibition of microbial growth by two fold broth microdilution method; type: functional
[2] = test system: Nakaseomyces glabratus; test: Antifungal activity against Candida glabrata assessed as inhibition of microbial growth by two fold broth microdilution method; type: functional
[3] = test system: Aspergillus fumigatus; test: Antifungal activity against Aspergillus fumigatus assessed as inhibition of microbial growth by two fold broth microdilution method; type: functional
[4] = test system: Candida tropicalis; test: Antifungal activity against Candida tropicalis assessed as inhibition of microbial growth by two fold broth microdilution method; type: functional
[5] = test system: Pichia kudriavzevii; test: Antifungal activity against Candida krusei assessed as inhibition of microbial growth by two fold broth microdilution method; type: functional
[6] = test system: Candida albicans SC5314; test: Inhibition of SE/CYP51 in Candida albicans ATCC SC5314 assessed as ergosterol level at 4 ug/ml incubated for 16 hrs by LC/MS analysis (reference value: 79.43 %); set-up: scale not given: the % may be the effect or the level left; conditions: dose 4.0 µg/ml
[7] = Hepatotoxicity in mouse infected with Candida albicans assessed as effect on alanine aminotransferase level in plasma administered via abdomen for 7 days (reference value: 102 +/-9.2 IU/L); type: toxicity; conditions: ip, 168 h, time 7 day
[8] = test system: Candida albicans; test: In vivo antifungal activity against Candida albicans infected in mouse assessed as disappearance of cell nuclear aggregation injected via abdomen for 7 days by H and E staining based histological analysis; type: functional, organism-based; conditions: time 7.0 day
[9] = Toxicity in mouse infected with Candida albicans assessed as change in spleen morphology administered via abdomen for 7 days by H and E staining based histological analysis; conditions: in vivo, ip, 168 h, time 7 day
[10] = Hepatotoxicity in mouse infected with Candida albicans assessed as aspartate aminotransferase level in plasma administered via abdomen for 7 days (reference value: 109.4 +/-4.8 IU/L); type: toxicity; conditions: ip, 168 h, time 7 day
[11] = test system: Candida albicans; test: In vivo antifungal activity against Candida albicans infected in mouse assessed as reduction in tissue infection injected via abdomen for 7 days by H and E staining based histological analysis; type: functional, organism-based; conditions: time 7.0 day
[12] = Stability in human plasma incubated for 60 mins; type: ADME, cell-free; conditions: read-out: Stabilty
[13] = test system: Candida albicans; test: In vivo antifungal activity against Candida albicans infected in mouse assessed as disappearance of infected positions injected via abdomen for 7 days by H and E staining based histological analysis; type: functional, organism-based; conditions: time 7.0 day
[14] = test system: Candida albicans; test: Antifungal activity against Candida albicans ATCC SC5314 assessed as decrease in fungal cell density by polarizing microscopy; type: functional, organism-based
[15] = Toxicity in mouse infected with Candida albicans assessed as change in liver morphology administered via abdomen for 7 days by H and E staining based histological analysis; conditions: in vivo, ip, 168 h, time 7 day
[16] = test system: Candida albicans; test: Antifungal activity against fluconazole-resistant Candida albicans 904 assessed as inhibition of microbial growth by two fold broth microdilution method; type: functional
[17] = test system: Candida albicans; test: Antifungal activity against fluconazole-resistant Candida albicans CaR assessed as inhibition of microbial growth by two fold broth microdilution method; type: functional
[18] = Toxicity in mouse infected with Candida albicans assessed as change in lung morphology administered via abdomen for 7 days by H and E staining based histological analysis; conditions: in vivo, ip, 168 h, time 7 day
[19] = test system: Candida albicans; test: Antifungal activity against fluconazole-resistant Candida albicans 632 assessed as inhibition of microbial growth by two fold broth microdilution method; type: functional
[20] = test system: Candida albicans SC5314; test: Inhibition of SE/CYP51 in Candida albicans ATCC SC5314 assessed as eburicol level at 4 ug/ml incubated for 16 hrs by LC/MS analysis (reference value: 4.67 %); set-up: scale not given: the % may be the effect or the level left; conditions: dose 4.0 µg/ml
[21] = test system: Candida albicans; test: Antifungal activity against fluconazole-resistant Candida albicans 901 assessed as inhibition of microbial growth by two fold broth microdilution method; type: functional
[22] = test system: Candida albicans; test: Antifungal activity against fluconazole-resistant Candida albicans 17# assessed as inhibition of microbial growth by two fold broth microdilution method; type: functional
[23] = test system: Candida albicans; test: In vivo antifungal activity against Candida albicans infected in mouse assessed as uniform cell distribution injected via abdomen for 7 days by H and E staining based histological analysis; type: functional, organism-based; conditions: time 7.0 day
[24] = Stability in human plasma incubated for 120 mins; type: ADME, cell-free; conditions: read-out: Stabilty
[25] = Toxicity in mouse infected with Candida albicans assessed as change in heart morphology administered via abdomen for 7 days by H and E staining based histological analysis; conditions: in vivo, ip, 168 h, time 7 day
[26] = Toxicity in mouse infected with Candida albicans assessed as change in body weight administered via abdomen for 7 days; conditions: in vivo, ip, 168 h, time 7 day
[27] = Renal toxicity in mouse infected with Candida albicans assessed as effect on blood urea nitrogen level administered via abdomen for 7 days (reference value: 6.7 +/-0.3 mmol/L); conditions: in vivo, ip, 168 h, time 7 day
[28] = test system: Candida albicans SC5314; test: Inhibition of SE/CYP51 in Candida albicans ATCC SC5314 assessed as unidentified sterol level at 4 ug/ml incubated for 16 hrs by LC/MS analysis (reference value: 7.03 %); set-up: scale not given: the % may be the effect or the level left; conditions: dose 4.0 µg/ml
[29] = Toxicity in mouse infected with Candida albicans assessed as change in kidney morphology administered via abdomen for 7 days by H and E staining based histological analysis; conditions: in vivo, ip, 168 h, time 7 day
[30] = test system: Candida albicans SC5314; test: Inhibition of SE/CYP51 in Candida albicans ATCC SC5314 assessed as lanosterol level at 4 ug/ml incubated for 16 hrs by LC/MS analysis (reference value: 6.62 %); set-up: scale not given: the % may be the effect or the level left; conditions: dose 4.0 µg/ml
[31] = test system: Candida albicans SC5314; test: Inhibition of SE/CYP51 in Candida albicans ATCC SC5314 assessed as squalene level at 4 ug/ml incubated for 16 hrs by LC/MS analysis (reference value: 2.25 %); set-up: scale not given: the % may be the effect or the level left; conditions: dose 4.0 µg/ml

Compound: O=C(/C=C/c1cccc2ccccc12)NC(Cn1ccnc1)C(=O)Nc1ccccc1 (stereo unspecified)
Activity [6]: 10.7%
Activity [7]: 105 IU/L
Activity [8]: Active
Activity [9]: Non-Toxic
Activity [10]: 101.5 IU/L
Activity [11]: Active
remaining at 1 h [12]: 89.7%
Activity [13]: Active
MIC [1]: 0.125 µg/mL
Activity [14]: Active
Activity [15]: Non-Toxic
MIC [16]: > 16 µg/mL
MIC [17]: 8 µg/mL
Activity [18]: Non-Toxic
MIC [2]: 0.125 µg/mL
MIC [19]: 8 µg/mL
Activity [20]: 40.1%
MIC [21]: 8 µg/mL
MIC [22]: 4 µg/mL
MIC [3]: 4 µg/mL
MIC [4]: 0.25 µg/mL
Activity [23]: Active
remaining at 2 h [24]: 84.1%
Activity [25]: Non-Toxic
MIC [5]: 0.25 µg/mL
Activity [26]: Non-Toxic
Activity [27]: 6.9 mmol/L
Activity [28]: 5.46%
Activity [29]: Non-Toxic
Activity [30]: 14.5%
Activity [31]: 29.1%

Compound: CN(CC(=O)NCc1cccnc1)C(=O)/C=C/c1ccc2c(c1)OCCO2
MIC [1]: 2 µg/mL
MIC [2]: 0.5 µg/mL
MIC [3]: > 16 µg/mL
MIC [4]: 0.5 µg/mL
MIC [5]: 4 µg/mL

Compound: O=C(/C=C/c1ccc2c(c1)OCCO2)NC(Cn1ccnc1)C(=O)NCc1ccccc1 (stereo unspecified)
MIC [1]: 0.5 µg/mL
MIC [2]: 1 µg/mL
MIC [3]: > 16 µg/mL
MIC [4]: 0.5 µg/mL
MIC [5]: 2 µg/mL

Compound: O=C(NCc1cccnc1)C(=O)N/N=C/c1ccc2ccccc2c1
MIC [1]: 1 µg/mL
MIC [2]: 0.25 µg/mL
MIC [3]: 8 µg/mL
MIC [4]: 0.25 µg/mL
MIC [5]: 0.5 µg/mL

Compound: O=C(/C=C/c1ccc2ccccc2c1)NC(Cn1ccnc1)C(=O)NCc1ccccc1 (stereo unspecified)
MIC [1]: 2 µg/mL
MIC [2]: 0.5 µg/mL
MIC [3]: 8 µg/mL
MIC [4]: 0.5 µg/mL
MIC [5]: 4 µg/mL

Compound: CN(CC(=O)NCc1ccncc1)C(=O)/C=C/c1ccc2ccccc2c1
MIC [1]: 0.25 µg/mL
MIC [16]: > 16 µg/mL
MIC [17]: 8 µg/mL
MIC [2]: 0.125 µg/mL
MIC [19]: 8 µg/mL
MIC [21]: > 16 µg/mL
MIC [22]: > 16 µg/mL
MIC [3]: 8 µg/mL
MIC [4]: 0.25 µg/mL
MIC [5]: 0.25 µg/mL

Compound: CN(CC(=O)NCc1ccncc1)C(=O)/C=C/c1ccc2c(c1)OCCO2
MIC [1]: 0.5 µg/mL
MIC [2]: 1 µg/mL
MIC [3]: > 16 µg/mL
MIC [4]: 0.5 µg/mL
MIC [5]: 1 µg/mL

More lines, in order of falling MIC [1], values ahead:

MIC [1]: 0.5 µg/mL
MIC [2]: 1 µg/mL
MIC [3]: > 16 µg/mL
MIC [4]: 1 µg/mL
MIC [5]: 0.5 µg/mL
Compound: CN(CC(=O)NCc1cccnc1)C(=O)/C=C/c1ccc2ccccc2c1

MIC [1]: 0.5 µg/mL
MIC [2]: 0.5 µg/mL
MIC [3]: > 16 µg/mL
MIC [4]: 2 µg/mL
MIC [5]: 2 µg/mL
Compound: O=C(/C=C/c1ccc2ccccc2c1)NCC(=O)NCc1cccnc1

MIC [1]: 0.25 µg/mL
MIC [2]: 0.5 µg/mL
MIC [3]: > 16 µg/mL
MIC [4]: 0.5 µg/mL
MIC [5]: 0.25 µg/mL
Compound: O=C(NCc1ccncc1)C(=O)N/N=C/c1ccc2ccccc2c1

MIC [1]: 0.25 µg/mL
MIC [2]: 0.25 µg/mL
MIC [3]: 4 µg/mL
MIC [4]: 0.25 µg/mL
MIC [5]: 0.5 µg/mL
Compound: O=C(/C=C/c1cccc2ccccc12)NCC(=O)NCc1ccncc1

MIC [1]: 0.125 µg/mL
MIC [2]: 0.25 µg/mL
MIC [3]: 4 µg/mL
MIC [4]: 0.25 µg/mL
MIC [5]: 0.5 µg/mL
Compound: CN(CC(=O)NCc1ccncc1)C(=O)/C=C/c1cccc2ccccc12
